Measured values as given in patent publication US8784849B2, “Hydroxyapatite-targeting poly(ethylene glycol) and related polymers” (Nektar Therapeutics, priority 2000, dated 2014).
Values belong to the compound of their own block, whether it stands above or below them.

Tests used:
[1] = Binding of PEG(2,000)-α-AHPDP-ω-protein to hydroxyapatite in vitro; settings: 37° C., 5 mM sodium phosphate buffer pH 7.2; for adsorption to hydroxyapatite (in words): 1^1/2 hour incubation; for percentage adsorbed to hydroxyapatite: by 1^1/2 hour incubation
Description: Hydroxyapatite (Fast Flow, Fluka, 120 mg) was equilibrated in 1 ml of 5 mM sodium phosphate buffer, pH 7.2 for 24 hours at 37° C. Native lysozyme or the PEG-lysozyme conjugate was mixed with the hydroxyapatite suspension in a 1:1 volume ratio and stirred at 37° C. Samples were taken from the mixture at various time points and analyzed for the percentage of unbound protein or PEG-protein conjugate by gel permeation chromatography. […] All samples had similar protein concentrations.

[2] = Binding of PEG-AHPDP derivatives to hydroxyapatite in vitro; settings: 37° C., 5 mM sodium phosphate buffer pH 7.2
Description: Hydroxyapatite (Fast Flow, Fluka, 12 mg) was equilibrated in 1 ml of 5 mM sodium phosphate buffer, pH 7.2 for 24 hours at 37° C.

[3] = in vivo; cited from earlier work
[4] = Excretion study of 125I-labelled PEG derivatives in mice; type: in vivo, Male ICR mice; settings: for average % [125I] captured (urine and feces, % of total counts injected): 2 μCi i.v. tail vein, n=6; for radiolabeled compound excreted in the urine: 8 hr collection, share of captured radiolabel
Description: PEG(2,000)-α-L-tyrosine-ω-AHPDP and mPEG(2,000)-α-L-tyrosine were iodinated using a standard chloramine-T procedure (Bolton, Methods Enzymol. 124: 18-29, 1986). In brief, a 15 μL aliquot of PEG(2,000)-α-L-tyrosine-ω-AHPDP or mPEG(2,000)-α-L-tyrosine (2 μg/μL total weight) was mixed with 50 μL of […] phosphate buffer. To this was added 1 mCi of NaI^125 and 10 μL of Chloramine-T (1 μg/μL). The mixture was finger vortexed for 30s followed by addition of 100 μL-Cys (2 µg/µL), followed by another 30s of finger vortexing. The purification was carried out by reverse-phase chromatography. The samples were eluted at 37° C. using a curvilinear gradient of 0.1% trifluroacetic acid (TFA) in acetonitrile (19-63%) versus 0.1% aqueous TFA over 30 min at 1.5 ml.min^−1.
Male ICR mice (20-25 g) were administered either 2 μCi of PEG(2,000)-α-L-tyrosine-ω-AHPDP or mPEG(2,000)-α-L-tyrosine via tail vein injection (100 μL; i.v.). The mice were placed into metabolism cages and urine and feces were collected at the following time points (1, 2, 3, 4, 6, & 8 hr post-injection) (n=6).

adsorption to hydroxyapatite (in words) [1]: limited adsorption
Compound: 1-PEGmer: PEG-lysozyme multimer with one PEG(2,000)-α-AHPDP chain, separated by size exclusion [Example 1-PEGmer]

percentage adsorbed to hydroxyapatite [1]: 100%
Compound: 2-PEGmer: PEG-lysozyme multimer with two PEG(2,000)-α-AHPDP chains, separated by size exclusion [Example 2-PEGmer]

percentage adsorbed to hydroxyapatite [1]: 100%
Compound: 3-PEGmer: PEG-lysozyme multimer with three PEG(2,000)-α-AHPDP chains, separated by size exclusion [Example 3-PEGmer]

adsorption half-life on hydroxyapatite [2]: around 1 min
Compound: NCCC(O)(P(=O)(O)O)P(=O)(O)O [AHPDP, 3-amino-1-hydroxypropane-1,1-diphosphonic acid, reference compound]

Compound: CC(O)(P(=O)(O)O)P(=O)(O)O [Etidronate]
half-life in bone [3]: greater than 90 days

adsorption to hydroxyapatite (in words) [1]: did not adsorb
Compound: Native lysozyme: chicken egg white lysozyme, MW=14,300 Da, used as a model protein [reference compound]

Compound: PEG(2,000)-α-methoxy-ω-L-tyrosine
adsorption to hydroxyapatite (in words) ([2]; 0.1-1.0 mg/ml): did not show any adsorption
average % [125I] captured (urine and feces, % of total counts injected) ([4]; 8 hour time course): 47.5%
radiolabeled compound excreted in the urine ([4]; i.v.): greater than 95%

Compound: PEG(2,000)-α-tyrosine-ω-AHPDP [PEG(2,000)-α-L-tyrosine-ω-AHPDP]
adsorption half-life on hydroxyapatite [2]: 19 min
average % [125I] captured (urine and feces, % of total counts injected) ([4]; 8 hour time course): 7.7%
[125I] retained in the body versus mPEG(2,000)-α-L-tyrosine (in words) ([4]; i.v., 8-hour period): significantly greater percentage
fold lower percentage of [125I] captured than mPEG(2,000)-α-L-tyrosine ([4]; i.v., 8 hour time course): 5 fold
radiolabeled compound excreted in the urine ([4]; i.v.): ~95%

adsorption half-life on hydroxyapatite [2]: 45 min
Compound: PEG(5,000)-α-amine-ω-AHPDP
